Results taken from the kinase profiling compilation of Christmann-Franck et al. (2016).

Assays:
Experiment in all cases: KINOMEscan competition binding
Conditions in all cases: compound 1.0 µM
AAK1 (human) = AAK1 (human) (UniProt Q2M2I8)
AKT1 (human) = AKT1 (human) (UniProt P31749)
BMPR2 (human) = BMPR2 (human) (UniProt Q13873)
BRSK2 (human) = BRSK2 (human) (UniProt Q8IWQ3)
CAMK2B (human) = CAMK2B (human) (UniProt Q13554)
CDK11B (human) = CDK11B (human) (UniProt P21127)
CDK2 (human) = CDK2 (human) (UniProt P24941)
CDK4 CCND1 (human) = CDK4 CCND1 (human) (UniProt P11802+P24385)
CDK8 (human) = CDK8 (human) (UniProt P49336)
CDKL3 (human) = CDKL3 (human) (UniProt Q8IVW4)
CSNK2A1 (human) = CSNK2A1 (human) (UniProt P68400)
Sequence of CSNK2A1 (human) (P68400 whole entry, looked up): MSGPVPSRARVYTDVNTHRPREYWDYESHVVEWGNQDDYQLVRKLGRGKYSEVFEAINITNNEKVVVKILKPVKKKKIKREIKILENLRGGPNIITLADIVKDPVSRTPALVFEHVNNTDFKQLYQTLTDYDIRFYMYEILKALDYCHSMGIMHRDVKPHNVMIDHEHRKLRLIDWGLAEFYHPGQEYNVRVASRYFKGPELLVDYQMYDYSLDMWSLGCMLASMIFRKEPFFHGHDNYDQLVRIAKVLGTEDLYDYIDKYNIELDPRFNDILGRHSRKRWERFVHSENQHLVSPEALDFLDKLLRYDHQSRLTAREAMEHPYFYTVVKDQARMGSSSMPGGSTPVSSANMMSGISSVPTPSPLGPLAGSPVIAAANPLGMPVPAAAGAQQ

DCLK2 (human) = DCLK2 (human) (UniProt Q8N568)
DYRK2 (human) = DYRK2 (human) (UniProt Q92630)
FGFR4 (human) = FGFR4 (human) (UniProt P22455)
FLT4 (human) = FLT4 (human) (UniProt P35916)
LIMK1 (human) = LIMK1 (human) (UniProt P53667)
MAP2K3 (human) = MAP2K3 (human) (UniProt P46734)
MAP4K3 (human) = MAP4K3 (human) (UniProt Q8IVH8)
MARK2 (human) = MARK2 (human) (UniProt Q7KZI7)
Sequence of MARK2 (human) (Q7KZI7 whole entry, looked up): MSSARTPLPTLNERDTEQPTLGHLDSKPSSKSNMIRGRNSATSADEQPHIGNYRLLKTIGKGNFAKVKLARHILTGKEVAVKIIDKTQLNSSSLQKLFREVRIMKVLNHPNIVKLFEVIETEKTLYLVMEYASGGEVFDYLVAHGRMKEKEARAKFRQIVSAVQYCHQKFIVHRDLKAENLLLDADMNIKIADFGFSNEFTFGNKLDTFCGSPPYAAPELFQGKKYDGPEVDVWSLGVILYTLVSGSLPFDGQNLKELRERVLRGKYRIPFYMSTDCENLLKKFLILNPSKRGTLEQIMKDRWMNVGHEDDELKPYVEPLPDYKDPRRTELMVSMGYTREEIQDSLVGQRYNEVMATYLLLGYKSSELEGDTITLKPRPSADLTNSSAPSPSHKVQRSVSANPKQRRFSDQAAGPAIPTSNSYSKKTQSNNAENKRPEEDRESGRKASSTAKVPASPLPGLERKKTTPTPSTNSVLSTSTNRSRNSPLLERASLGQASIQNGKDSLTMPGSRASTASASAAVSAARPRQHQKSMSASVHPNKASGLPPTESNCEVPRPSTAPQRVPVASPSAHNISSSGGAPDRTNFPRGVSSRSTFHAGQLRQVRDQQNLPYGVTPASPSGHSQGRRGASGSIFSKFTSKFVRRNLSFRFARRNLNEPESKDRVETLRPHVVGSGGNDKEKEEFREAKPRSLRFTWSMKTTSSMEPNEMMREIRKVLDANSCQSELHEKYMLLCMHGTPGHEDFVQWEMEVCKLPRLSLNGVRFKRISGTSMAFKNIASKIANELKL

MST4 (human) = MST4 (human) (UniProt Q9P289)
MTOR (human) = MTOR (human) (UniProt P42345)
MYO3B (human) = MYO3B (human) (UniProt Q8WXR4)
NEK11 (human) = NEK11 (human) (UniProt Q8NG66)
NEK2 (human) = NEK2 (human) (UniProt P51955)
NUAK1 (human) = NUAK1 (human) (UniProt O60285)
OXSR1 (human) = OXSR1 (human) (UniProt O95747)
[1] = system: PIK3CA (human), P42336 [E545K]
PIM2 (human) = PIM2 (human) (UniProt Q9P1W9)
PIP4K2B (human) = PIP4K2B (human) (UniProt P78356)
Sequence of PIP4K2B (human) (P78356 whole entry, looked up): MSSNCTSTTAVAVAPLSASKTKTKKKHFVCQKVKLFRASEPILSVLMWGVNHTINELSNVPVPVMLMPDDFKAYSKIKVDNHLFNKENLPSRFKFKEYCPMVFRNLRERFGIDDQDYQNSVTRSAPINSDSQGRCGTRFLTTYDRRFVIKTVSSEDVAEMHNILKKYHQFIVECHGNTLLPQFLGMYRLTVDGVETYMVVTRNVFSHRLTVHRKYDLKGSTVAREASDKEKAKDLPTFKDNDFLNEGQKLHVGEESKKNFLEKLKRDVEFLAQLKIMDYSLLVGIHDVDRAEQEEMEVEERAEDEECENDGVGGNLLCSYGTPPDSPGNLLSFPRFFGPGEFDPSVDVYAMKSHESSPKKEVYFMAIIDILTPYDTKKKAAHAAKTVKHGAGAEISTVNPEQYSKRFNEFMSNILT

PIP4K2C (human) = PIP4K2C (human) (UniProt Q8TBX8)
Sequence of PIP4K2C (human) (Q8TBX8 whole entry, looked up): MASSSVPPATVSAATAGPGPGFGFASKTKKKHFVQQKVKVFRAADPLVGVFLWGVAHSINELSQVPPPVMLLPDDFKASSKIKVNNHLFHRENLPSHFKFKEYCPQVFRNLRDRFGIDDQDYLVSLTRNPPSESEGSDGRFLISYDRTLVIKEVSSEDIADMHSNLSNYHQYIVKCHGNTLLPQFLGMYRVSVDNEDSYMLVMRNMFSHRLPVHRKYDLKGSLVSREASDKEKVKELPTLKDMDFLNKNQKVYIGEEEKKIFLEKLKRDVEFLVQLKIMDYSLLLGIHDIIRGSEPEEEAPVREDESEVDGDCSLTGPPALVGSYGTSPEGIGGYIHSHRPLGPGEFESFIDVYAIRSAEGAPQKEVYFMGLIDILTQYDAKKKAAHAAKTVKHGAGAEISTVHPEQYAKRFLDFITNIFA

PLK2 (human) = PLK2 (human) (UniProt Q9NYY3)
Sequence of PLK2 (human) (Q9NYY3 whole entry, looked up): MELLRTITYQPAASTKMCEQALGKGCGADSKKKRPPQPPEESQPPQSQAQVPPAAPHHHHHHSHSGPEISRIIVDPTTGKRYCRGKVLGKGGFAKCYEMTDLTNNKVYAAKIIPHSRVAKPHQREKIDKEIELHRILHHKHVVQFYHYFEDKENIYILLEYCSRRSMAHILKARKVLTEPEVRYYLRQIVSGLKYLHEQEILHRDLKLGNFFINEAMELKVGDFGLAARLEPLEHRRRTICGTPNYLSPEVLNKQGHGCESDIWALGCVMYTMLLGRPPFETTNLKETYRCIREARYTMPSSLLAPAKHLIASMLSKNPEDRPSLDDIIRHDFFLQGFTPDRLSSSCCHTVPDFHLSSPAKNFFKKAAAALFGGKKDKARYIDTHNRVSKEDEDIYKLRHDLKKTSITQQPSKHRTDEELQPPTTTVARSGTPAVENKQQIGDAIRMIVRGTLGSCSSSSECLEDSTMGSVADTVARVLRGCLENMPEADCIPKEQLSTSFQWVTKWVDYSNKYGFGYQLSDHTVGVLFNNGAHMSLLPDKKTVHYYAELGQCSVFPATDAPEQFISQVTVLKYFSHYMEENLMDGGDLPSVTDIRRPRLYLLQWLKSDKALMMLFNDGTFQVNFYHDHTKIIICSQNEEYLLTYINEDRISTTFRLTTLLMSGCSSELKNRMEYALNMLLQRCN

PRKD2 (human) = PRKD2 (human) (UniProt Q9BZL6)
PRKG2 (human) = PRKG2 (human) (UniProt Q13237)
Sequence of PRKG2 (human) (Q13237 whole entry, looked up): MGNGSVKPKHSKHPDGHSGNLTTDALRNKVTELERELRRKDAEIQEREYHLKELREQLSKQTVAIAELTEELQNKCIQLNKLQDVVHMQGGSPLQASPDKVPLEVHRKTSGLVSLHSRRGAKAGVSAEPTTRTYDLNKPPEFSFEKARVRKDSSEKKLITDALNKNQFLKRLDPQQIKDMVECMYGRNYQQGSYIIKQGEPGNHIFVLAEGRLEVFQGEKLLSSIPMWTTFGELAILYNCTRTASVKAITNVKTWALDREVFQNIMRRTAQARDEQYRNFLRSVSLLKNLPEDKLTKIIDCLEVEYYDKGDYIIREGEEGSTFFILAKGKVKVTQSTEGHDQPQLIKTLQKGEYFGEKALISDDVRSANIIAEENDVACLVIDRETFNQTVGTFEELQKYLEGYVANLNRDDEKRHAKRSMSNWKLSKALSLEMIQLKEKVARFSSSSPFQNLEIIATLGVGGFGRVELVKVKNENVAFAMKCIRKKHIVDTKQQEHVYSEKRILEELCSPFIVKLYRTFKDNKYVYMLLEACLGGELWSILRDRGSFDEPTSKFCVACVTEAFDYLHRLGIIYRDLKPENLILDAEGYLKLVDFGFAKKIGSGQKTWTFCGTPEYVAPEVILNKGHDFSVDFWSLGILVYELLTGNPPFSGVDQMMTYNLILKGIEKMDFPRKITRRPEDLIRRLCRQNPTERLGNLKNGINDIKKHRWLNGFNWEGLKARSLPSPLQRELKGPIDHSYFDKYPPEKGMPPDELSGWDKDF

PTK6 (human) = PTK6 (human) (UniProt Q13882)
STK25 (human) = STK25 (human) (UniProt O00506)
STK39 (human) = STK39 (human) (UniProt Q9UEW8)
TAOK1 (human) = TAOK1 (human) (UniProt Q7L7X3)
Sequence of TAOK1 (human) (Q7L7X3 whole entry, looked up): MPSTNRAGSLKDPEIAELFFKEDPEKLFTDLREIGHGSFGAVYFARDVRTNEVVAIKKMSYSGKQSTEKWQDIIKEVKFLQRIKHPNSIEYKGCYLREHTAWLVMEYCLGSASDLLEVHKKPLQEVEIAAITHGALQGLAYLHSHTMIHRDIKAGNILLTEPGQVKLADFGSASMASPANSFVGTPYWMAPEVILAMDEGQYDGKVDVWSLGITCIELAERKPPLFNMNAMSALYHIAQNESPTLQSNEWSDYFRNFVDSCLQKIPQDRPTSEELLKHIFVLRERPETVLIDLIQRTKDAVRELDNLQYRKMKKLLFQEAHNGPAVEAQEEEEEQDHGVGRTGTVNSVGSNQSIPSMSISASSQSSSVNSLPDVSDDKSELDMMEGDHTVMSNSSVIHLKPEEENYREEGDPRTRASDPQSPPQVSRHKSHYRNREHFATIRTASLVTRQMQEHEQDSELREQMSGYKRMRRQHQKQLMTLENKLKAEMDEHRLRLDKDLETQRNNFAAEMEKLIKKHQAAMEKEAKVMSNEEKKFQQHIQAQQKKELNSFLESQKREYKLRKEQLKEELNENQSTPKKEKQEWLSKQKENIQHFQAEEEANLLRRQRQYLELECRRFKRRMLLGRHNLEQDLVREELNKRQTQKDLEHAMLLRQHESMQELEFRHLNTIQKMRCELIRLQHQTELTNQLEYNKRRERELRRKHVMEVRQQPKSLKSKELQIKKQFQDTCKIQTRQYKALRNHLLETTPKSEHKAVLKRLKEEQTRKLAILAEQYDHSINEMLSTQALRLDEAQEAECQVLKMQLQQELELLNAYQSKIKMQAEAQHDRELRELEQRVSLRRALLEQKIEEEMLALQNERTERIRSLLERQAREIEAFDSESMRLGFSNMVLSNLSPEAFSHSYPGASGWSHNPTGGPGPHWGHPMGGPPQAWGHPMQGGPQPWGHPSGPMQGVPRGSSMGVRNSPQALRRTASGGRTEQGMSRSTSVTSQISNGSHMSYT

TNIK (human) = TNIK (human) (UniProt Q9UKE5)
[2] = molecular target: TYK2 JH1 catalytic (human) (UniProt P29597)

Sequence of AKT1 (human) (P31749 whole entry, looked up): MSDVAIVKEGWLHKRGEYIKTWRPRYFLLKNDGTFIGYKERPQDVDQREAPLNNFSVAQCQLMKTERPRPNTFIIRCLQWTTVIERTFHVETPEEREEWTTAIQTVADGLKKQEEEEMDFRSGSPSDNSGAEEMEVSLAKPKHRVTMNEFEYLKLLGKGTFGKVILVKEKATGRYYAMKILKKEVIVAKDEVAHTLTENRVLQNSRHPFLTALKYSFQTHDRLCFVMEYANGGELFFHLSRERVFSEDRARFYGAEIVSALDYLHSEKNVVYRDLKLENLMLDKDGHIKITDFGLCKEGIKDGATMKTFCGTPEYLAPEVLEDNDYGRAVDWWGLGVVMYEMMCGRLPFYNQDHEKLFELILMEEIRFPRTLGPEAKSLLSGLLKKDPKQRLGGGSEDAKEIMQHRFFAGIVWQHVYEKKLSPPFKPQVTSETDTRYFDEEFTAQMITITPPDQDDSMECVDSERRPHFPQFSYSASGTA

Work on `CNc1nc(Nc2ccc(C(=O)N3CCOCC3)cc2OC)ncc1Cl` yielded a kinase still bound, per cent of control (AAK1 (human)) of 38%, a kinase still bound, per cent of control (AKT1 (human)) of 99% and a kinase still bound, per cent of control (BMPR2 (human)) of 85%. For the same molecule, the kinase still bound, per cent of control (BRSK2 (human)) was 51%, the kinase still bound, per cent of control (CAMK2B (human)) was 89% and the residual activity (CDK11B (human)) was 100%. For the same molecule, the residual activity (CDK2 (human)) was 95%, the residual activity (CDK4 CCND1 (human)) was 100% and the residual activity (CDK8 (human)) was 100%. It also gave a residual activity (CDKL3 (human)) of 100%, a kinase still bound, per cent of control (CSNK2A1 (human)) of 76% and a kinase still bound, per cent of control (DCLK2 (human)) of 100%. For the same molecule, the kinase still bound, per cent of control (DYRK2 (human)) was 91%, the kinase still bound, per cent of control (FGFR4 (human)) was 52% and the kinase still bound, per cent of control (FLT4 (human)) was 93%. For the same molecule, the kinase still bound, per cent of control (LIMK1 (human)) was 91%, the kinase still bound, per cent of control (MAP2K3 (human)) was 93% and the kinase still bound, per cent of control (MAP4K3 (human)) was 100%. It also gave a kinase still bound, per cent of control (MARK2 (human)) of 100%, a kinase still bound, per cent of control (MST4 (human)) of 100% and a kinase still bound, per cent of control (MTOR (human)) of 100%. It also gave a kinase still bound, per cent of control (MYO3B (human)) of 100%, a kinase still bound, per cent of control (NEK11 (human)) of 100% and a kinase still bound, per cent of control (NEK2 (human)) of 78%. For the same molecule, the kinase still bound, per cent of control (NUAK1 (human)) was 82%, the kinase still bound, per cent of control (OXSR1 (human)) was 100% and the kinase still bound, per cent of control [1] was 100%. The kinase still bound, per cent of control (PIM2 (human)) was 100%, the kinase still bound, per cent of control (PIP4K2B (human)) was 83% and the kinase still bound, per cent of control (PIP4K2C (human)) was 100%. The kinase still bound, per cent of control (PLK2 (human)) was 100%, the kinase still bound, per cent of control (PRKD2 (human)) was 84% and the kinase still bound, per cent of control (PRKG2 (human)) was 94%. For the same molecule, the kinase still bound, per cent of control (PTK6 (human)) was 47%, the kinase still bound, per cent of control (STK25 (human)) was 100% and the residual activity (STK39 (human)) was 100%. The kinase still bound, per cent of control (TAOK1 (human)) was 99%, the kinase still bound, per cent of control (TNIK (human)) was 100% and the kinase still bound, per cent of control [2] was 73%.
